Measurements as given in patent US4450234A, “Antibiotic C-15003 PHM and production thereof” (Takeda Chemical Industries, Ltd., priority 1979, dated 1984).
≈ marks a conversion by molar mass, not a printed value.

Columns and labels:
[1] = system: Tetrahymena pyriformis W; experiment: Antiprotozoan growth inhibition, serial broth dilution method; type: cell-based; settings: 44 h, 28° C., 44 to 48 hours, pH 7.0, serial broth dilution, read-out: growth inhibitory concentration
Protocol: In addition, using Tetrahymena pyriformis W strain as the test organism and the assay medium composed of 20 g proteose peptone (Difco, U.S.A.), 1 g yeast extract, 2 g glucose, 1000 ml distilled water and 10 ml 1 M phosphate buffer, pH 7.0, cultivation was carried out at 28° C. for 44 to 48 hours and the growth inhibitory concentration of the antibiotic was determined by the serial broth dilution method.
Tetrahymena pyriformis W, as the test organism, was cultivated on an assay medium [20 g of proteose-peptone (Difco, U.S.A.), 1 g of yeast extract, 2 g of glucose, 1000 ml of distilled water, 10 ml of 1 M phosphate buffer, pH 7.0] at 28° C. for 44 to 48 hours and the growth inhibitory activity of the compound against the above-mentioned strain was assayed by the serial dilution method.

[2] = system: Klebsiella pneumoniae; experiment: Antibacterial activity, paper disk method; type: cell-based; settings: paper disk 8 mm, 0.02 ml of 300 μg/ml solution, Trypticase-soy-agar
Protocol: (§1) Using Trypticase-soy-agar (Baltimore Biologicals, U.S.A.) as the assay medium, the growth inhibitory concentrations of the compound against the various microorganisms named hereinbelow were determined by the paperdisk method. Thus, on plate media containing the following microorganisms, respectively, minimal inhibitory concentrations were determined using paper disks imbibed with 0.02 ml of a 300 μg/ml solution of PHM-3 or PHM-4 (disks, Toyo Seisakusho, Japan, thin-type, diam. 8 mm).
(§2) Escherichia coli, Proteus vulgaris, Proteus mirabilis, Pseudomonas aeruginosa, Staphylococcus aureus, Bacillus subtilis, Bacillus cereus, Klebsiella pneumoniae, Serratia marcessence, Mycobacterium avium.
(§3) Using Trypticase-soy-agar (Baltimore Biologicals, U.S.A.) as the test medium, the growth inhibitory activity of the compound against the organisms named below was assayed by the paper disk method. Thus, on the plate media each containing one of the undermentioned organisms, the activity of the compound was tested using paper disks (Toyo Seisakusho, Japan, thin type, diam. 8 mm) imbibed with 0.02 ml of a 300 μg/ml solution of PHM-3-acetate.
(§4) Escherichia coli, Proteus vulgaris, Proteus mirabilis, Pseudomonas aeruginosa, Staphylococcus aureus, Bacillus subtilis, Bacillus cereus, Klebsiella pneumoniae, Serratia marcescence, Mycobacterium avium.

[3] = system: Staphylococcus aureus; experiment: Antibacterial activity, paper disk method; type: cell-based; settings: paper disk 8 mm, 0.02 ml of 300 μg/ml solution, Trypticase-soy-agar
Protocol: as §1, §2, §3, §4

[4] = system: Mycobacterium avium; experiment: Antibacterial activity, paper disk method; type: cell-based; settings: paper disk 8 mm, 0.02 ml of 300 μg/ml solution, Trypticase-soy-agar
Protocol: as §1, §2, §3, §4

[5] = system: Proteus vulgaris; experiment: Antibacterial activity, paper disk method; type: cell-based; settings: paper disk 8 mm, 0.02 ml of 300 μg/ml solution, Trypticase-soy-agar
Protocol: as §1, §2, §3, §4

[6] = system: Serratia marcessence; experiment: Antibacterial activity, paper disk method; type: cell-based; settings: paper disk 8 mm, 0.02 ml of 300 μg/ml solution, Trypticase-soy-agar
Protocol: as §1, §2, §3, §4

[7] = system: Escherichia coli; experiment: Antibacterial activity, paper disk method; type: cell-based; settings: paper disk 8 mm, 0.02 ml of 300 μg/ml solution, Trypticase-soy-agar
Protocol: as §1, §2, §3, §4

[8] = system: Bacillus cereus; experiment: Antibacterial activity, paper disk method; type: cell-based; settings: paper disk 8 mm, 0.02 ml of 300 μg/ml solution, Trypticase-soy-agar
Protocol: as §1, §2, §3, §4

[9] = system: Bacillus subtilis; experiment: Antibacterial activity, paper disk method; type: cell-based; settings: paper disk 8 mm, 0.02 ml of 300 μg/ml solution, Trypticase-soy-agar
Protocol: as §1, §2, §3, §4

[10] = system: Proteus mirabilis; experiment: Antibacterial activity, paper disk method; type: cell-based; settings: paper disk 8 mm, 0.02 ml of 300 μg/ml solution, Trypticase-soy-agar
Protocol: as §1, §2, §3, §4

[11] = system: Pseudomonas aeruginosa; experiment: Antibacterial activity, paper disk method; type: cell-based; settings: paper disk 8 mm, 0.02 ml of 300 μg/ml solution, Trypticase-soy-agar
Protocol: as §1, §2, §3, §4

[12] = system: Nocardia sp. No. N-1231; experiment: Antibiotic resistance of No. N-1231 strain; type: cell-based
[13] = Neutral lipophilic character; type: physicochemical

Structure (SMILES) | MIC [1] [µg/mL] | activity (growth inhibition) [2] | activity (growth inhibition) [3] | activity (growth inhibition) [4] | activity (growth inhibition) [5] | activity (growth inhibition) [6] | activity (growth inhibition) [7] | activity (growth inhibition) [8] | activity (growth inhibition) [9] | activity (growth inhibition) [10] | activity (growth inhibition) [11] | resistance of No. N-1231 strain [12] | neutral lipophilic / fat-soluble character [13]
COc1cc2cc(c1Cl)N(C)C(=O)CC(OC(=O)CC(C)C)C1(C)OC1C(C)C1CC(O)(NC(=O)O1)C(OC)C=CC=C(CO)C2 (stereo not drawn) [PHM-4] | 40 (≈ 60.1 µM) | no activity | no activity | no activity | no activity | no activity | no activity | no activity | no activity | no activity | no activity | – | –
CC1(C)S[C@@H]2[C@H](NC(=O)Cc3ccccc3)C(=O)N2[C@H]1C(=O)O [penicillin G] | – | – | – | – | – | – | – | – | – | – | – | resistant | –
COc1cc2cc(c1Cl)N(C)C(=O)CC(OC(C)=O)C1(C)OC1C(C)C1CC(O)(NC(=O)O1)C(OC)C=CC=C(C)C2 (stereo not drawn) [P-1, maytanacine] | – | – | – | – | – | – | – | – | – | – | – | – | neutral lipophilic
CCC[C@@H]1C[C@@H](C(=O)N[C@@H]([C@H]2O[C@H](SC)[C@H](O)[C@@H](O)[C@H]2O)[C@@H](C)O)N(C)C1 [lincomycin] | – | – | – | – | – | – | – | – | – | – | – | resistant | –
COc1cc2cc(c1Cl)N(C)C(=O)CC(OC(=O)C(C)C)C1(C)OC1C(C)C1CC(O)(NC(=O)O1)C(OC)C=CC=C(CO)C2 (stereo not drawn) [PHM-3] | 40 (≈ 61.4 µM) | no activity | no activity | no activity | no activity | no activity | no activity | no activity | no activity | no activity | no activity | – | –
CCC(=O)OC1CC(=O)N(C)c2cc(cc(OC)c2Cl)CC(C)=CC=CC(OC)C2(O)CC(OC(=O)N2)C(C)C2OC12C (stereo not drawn) [P-2, maytansinol propionate] | – | – | – | – | – | – | – | – | – | – | – | – | neutral lipophilic
COc1cc2cc(c1Cl)N(C)C(=O)CC(OC(=O)C(C)C)C1(C)OC1C(C)C1CC(O)(NC(=O)O1)C(OC)C=CC=C(COC(C)=O)C2 (stereo not drawn) [PHM-3-acetate] | 8 (≈ 11.5 µM) | failed to show activity | failed to show activity | failed to show activity | failed to show activity | failed to show activity | failed to show activity | failed to show activity | failed to show activity | failed to show activity | failed to show activity | – | –
[H]/N=C(/N)N[C@H]1[C@H](O)[C@@H](O)[C@H](O[C@@H]2O[C@@H](C)[C@](O)(C=O)[C@H]2O[C@@H]2O[C@@H](CO)[C@H](O)[C@@H](O)[C@@H]2NC)[C@@H](N/C(N)=N\[H])[C@@H]1O [streptomycin] | – | – | – | – | – | – | – | – | – | – | – | resistant | –
COc1cc2cc(c1Cl)N(C)C(=O)CC(O)C1(C)OC1C(C)C1CC(O)(NC(=O)O1)C(OC)/C=C/C=C(\C)C2 (stereo not drawn) [P-0, maytansinol] | – | – | – | – | – | – | – | – | – | – | – | – | neutral lipophilic
